Laboratory results taken from patent US9096832B2, “Differentiation of human embryonic stem cells” (LifeScan, Inc., priority 2007, dated 2015).

Legend:
[1] = test system: human embryonic stem cell line H9; settings: activin A or retinoic acid alone
Description: Cultures were harvested and samples of mRNA were collected for analysis.
Cells seeded on 0.1% Matrigel (BD) coated dishes were fixed with 4% paraformaldheyde for 20 min at room temperature. Fixed cells were blocked for 1 h at room temperature with PBS/0.1%BSA/10% normal chick serum /0.5% Triton X-100 and then incubated overnight with primary antibodies in PBS/0.1%BSA/10% normal chick serum at 4° C. After three washes in PBS/0.1% BSA, fluorescent secondary antibodies at a 1:100 dilution in PBS were incubated with cells for 1 h at room temperature to allow binding. Control samples included reactions where the primary antibody was omitted or where the primary antibody was replaced with corresponding matched negative control immunoglobulins at the same concentration as the primary antibodies. […]
Real-time PCR amplification and quantitative analysis: Unless otherwise stated, all reagents were purchased from Applied Biosystems. […] For each primer/probe set, a Ct value was determined as the cycle number at which the fluorescence intensity reached a specific value in the middle of the exponential region of amplification. Relative gene expression levels were calculated using the comparative Ct method. […] The normalized amount of target was calculated as 2-ΔCt, assuming amplification to be 100% efficiency. […]

[2] = test system: human embryonic stem cell line H9; experiment: FACS of protein markers after activin A treatment, hES cells on mouse embryonic fibroblasts (Table IIA); type: cell-based; settings: for CD9 protein expression / CXCR4 protein expression / ECAM protein expression / NCAM protein expression / SSEA-3 protein expression: H9, FACS
From the text: The level of expression of definitive endoderm markers was examined by PCR (FIG. 1), FACS (results summarized in Table II), and immunohistochemistry (FIG. 2).
CXCR4 positive cells were also highly positive for C-kit, EPCAM, CD99, and negative for CD9. The expression pattern for these markers was consistent among all three hES cell lines examined (Table IIB for H7 and Table IIC for H1). […] In parallel, almost 100% of the differentiated cells were […] (FIG. 2).
Adhered cells were removed from culture plates by five-minute incubation with TrypLE™ Express solution (Invitrogen, CA). Released cells were resuspended in human embryonic stem cell culture medium and recovered by centrifugation, followed by washing and resuspending the cells in a staining buffer consisting of 2% BSA, 0.05% sodium azide in PBS (Sigma, MO). As appropriate, the cells were Fc-receptor blocked for 15 minutes using a 0.1% γ-globulin (Sigma) solution. […] Controls included appropriate isotype matched antibodies, unstained cells, and cells stained only with secondary conjugated antibody. All incubations with antibodies were performed for 30 mins at 4° C. after which the cells were washed with the staining buffer. Samples that were stained with unconjugated primary antibodies were incubated for an additional 30 mins at 4° C. with secondary conjugated PE or —APC labeled antibodies. See Table I for a list of secondary antibodies used. Washed cells were pelleted and resuspended in the staining buffer, and the cell surface molecules were identified using a FACS Array (BD Biosciences) instrument, collecting at least 10,000 events.

[3] = test system: H9P46 embryonic stem cells; experiment: Definitive endoderm on […]: effective dose of Wnt-3a (FACS, PCR, cell number); type: cell-based, human
Description: Control cultures were not treated with Wnt-3a. FIG. 27, panel a depicts the expression of CXCR4 by FACS at day 5 in the absence of Wnt-3a, b) 10 ng/ml Wnt-3a, c) 20 ng/ml Wnt-3a and d) 50 ng/ml Wnt-3a. In the absence of Wnt-3a the expression of CXCR4 was very low. […] Real-time PCR results (FIG. 28, panel a) also confirm this finding.
In a separate study, H9p52 cells were plated on 1:30 low growth factor […]™. For the first 2 days of the DE protocol a range of Wnt-3a doses was used: 10 ng/ml, 5 ng/ml and 1 ng/ml. […] The number of cells at the end of the experiment is noted in FIG. 28, panel c.

Row | Substance | expression of Pdx1 [1] | expression of E-cadherin and N-cadherin ([2]; FACS, following activin A treatment) | CD9 protein expression ([2]; 2-DAY activin A 100 ng/ml) [%] | CXCR4 protein expression ([2]; 2-DAY activin A 100 ng/ml) [%] | ECAM protein expression ([2]; 2-DAY activin A 100 ng/ml) [%] | NCAM protein expression ([2]; 2-DAY activin A 100 ng/ml) [%] | SSEA-3 protein expression ([2]; 2-DAY activin A 100 ng/ml) [%] | CD9 protein expression ([2]; 5-DAY activin A 100 ng/ml) [%] | CXCR4 protein expression ([2]; 5-DAY activin A 100 ng/ml) [%] | ECAM protein expression ([2]; 5-DAY activin A 100 ng/ml) [%] | NCAM protein expression ([2]; 5-DAY activin A 100 ng/ml) [%] | SSEA-3 protein expression ([2]; 5-DAY activin A 100 ng/ml) [%] | CD9 protein expression ([2]; 8-DAY activin A 100 ng/ml) [%] | CXCR4 protein expression ([2]; 8-DAY activin A 100 ng/ml) [%] | ECAM protein expression ([2]; 8-DAY activin A 100 ng/ml) [%] | NCAM protein expression ([2]; 8-DAY activin A 100 ng/ml) [%] | SSEA-3 protein expression ([2]; 8-DAY activin A 100 ng/ml) [%] | CXCR4 protein by FACS analysis ([2]; following activin A treatment) | number of CXCR4 positive cells ([3]; 10-50 ng/ml Wnt-3a, day 5) | Wnt3a dose sufficient to reach optimal cell expansion and definitive endoderm differentiation ([3]; for 2 days, H9p52 on 1:30 low growth factor MATRIGEL) [ng/mL]
1 | Activin A: activin A (a member of the TGFβ superfamily), R&D Systems; 'w/o wnt' in Table VII = 100 ng/ml Activin A without Wnt3a | did not induce | did not change | 29.42 | 20.2 | 20.87 | 5.04 | 92.14 | 7.27 | 55.26 | 14.17 | 21.1 | 42.9 | 4.1 | 56.92 | 1.02 | 8.86 | 22.05 | increase | – | –
2 | Wnt-3a | – | – | – | – | – | – | – | – | – | – | – | – | – | – | – | – | – | – | significantly increased | 10
